Source: publication PMC8217550, “ERRγ enhances cardiac maturation with T-tubule formation in human iPSC-derived cardiomyocytes” (Nature Communications, 2021)

Molecular target: T1, estrogen-related receptor gamma (ERRγ) (Homo sapiens, UniProt P62508)
T1 construct: gene ESRRG; His-tagged ERRγ LBD
T1 sequence (P62508 233-458 limits assumed): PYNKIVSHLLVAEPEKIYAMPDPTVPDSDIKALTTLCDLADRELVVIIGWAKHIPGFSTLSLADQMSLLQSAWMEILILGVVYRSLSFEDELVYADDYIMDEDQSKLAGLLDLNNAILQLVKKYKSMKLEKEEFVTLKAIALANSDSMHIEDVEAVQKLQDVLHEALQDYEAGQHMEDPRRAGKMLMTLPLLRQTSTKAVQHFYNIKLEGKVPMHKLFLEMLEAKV
T1 sequence (Q9UBK2 1-798 partner): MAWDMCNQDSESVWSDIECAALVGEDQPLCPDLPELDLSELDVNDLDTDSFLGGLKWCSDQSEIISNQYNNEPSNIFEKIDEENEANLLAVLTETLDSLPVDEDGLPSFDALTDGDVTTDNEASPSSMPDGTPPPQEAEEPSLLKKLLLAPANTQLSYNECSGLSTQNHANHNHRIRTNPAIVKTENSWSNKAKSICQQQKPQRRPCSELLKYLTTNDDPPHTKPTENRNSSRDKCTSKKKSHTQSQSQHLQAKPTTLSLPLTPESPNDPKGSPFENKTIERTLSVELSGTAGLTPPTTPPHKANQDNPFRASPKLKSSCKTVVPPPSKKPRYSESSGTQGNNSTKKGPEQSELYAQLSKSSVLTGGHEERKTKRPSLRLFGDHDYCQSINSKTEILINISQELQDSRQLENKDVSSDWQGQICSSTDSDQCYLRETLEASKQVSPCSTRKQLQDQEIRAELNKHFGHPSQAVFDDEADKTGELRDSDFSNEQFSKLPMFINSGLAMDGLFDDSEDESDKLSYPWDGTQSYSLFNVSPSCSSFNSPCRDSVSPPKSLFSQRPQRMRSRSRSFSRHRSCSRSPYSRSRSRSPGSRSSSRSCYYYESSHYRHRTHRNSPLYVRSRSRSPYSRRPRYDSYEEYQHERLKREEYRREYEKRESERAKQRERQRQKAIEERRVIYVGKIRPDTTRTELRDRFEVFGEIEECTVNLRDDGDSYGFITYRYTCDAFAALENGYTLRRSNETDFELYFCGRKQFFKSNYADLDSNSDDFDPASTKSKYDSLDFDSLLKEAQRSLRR
Test: LanthaScreen TR-FRET PGC1a coactivator-binding assay (agonist)
Type: biochemical

## O=C1c2ccc(N3CCOCC3)cc2CN1c1ccc2[nH]c(-c3ccc(Br)cc3)nc2c1 [T112, 2-[2-(4-bromophenyl)-1H-benzimidazol-5-yl]-5-(morpholin-4-yl)-2,3-dihydro-1H-isoindol-1-one]
  LanthaScreen TR-FRET PGC1a coactivator-binding assay (agonist): to have ERRγ-agonistic activity with stronger effects than the commercially available ERRγ agonist GSK4716
